Measurements: patent publication US11612615B2, “Combined administration of cysteine-aspartic protease inhibitors with P2Y12 receptor antagonists protects the heart against myocardial infarction” (The University of South Alabama, priority 2017, dated 2023)
“Also recorded” adds a separate entry of the source.

Legend:
[1] = system: I/R injury of the heart (LAD occlusion); test: In situ open-chest LAD occlusion, 60-min ischemia/120-min reperfusion, infarct size by TTC staining; type: in vivo, Sprague-Dawley rats; conditions: for infarct size / cardioprotection (in words): open chest rat hearts, 60 min ischemia/120-min reperfusion, treatment just prior to reperfusion; for infarction, % of the risk zone: rat, 60-min LAD ligation/120-min reperfusion, VX-765 32 mg/kg iv 5 min, cangrelor 60 μg/kg iv bolus + 6 μg/kg/min, ticagrelor 30 mg/kg ip 10 min prior to reperfusion, mean ± standard error
[2] = system: blood-free isolated rat hearts (global I/R injury); test: Ex vivo isolated buffer-perfused heart, 40-min global ischemia/120-min reperfusion
Procedure: To examine effects of VX-765 on blood-free isolated hearts, rats were anesthetized as described above. Animals were intubated through tracheotomy and positive pressure ventilation initiated with 100% oxygen. A thoracotomy was performed and the heart was quickly excised from the chest cavity for mounting on a Langendorff apparatus (within one minute). The coronary arteries were retroperfused with Krebs buffer through the aortic root and a latex balloon was placed in the lumen of the left ventricle allowing volume adjustment to 100 mmHg peak ventricular pressure. After a 20-min period of equilibration, perfusion was stopped for 40-min to induce global ischemia. The heart was maintained in a water-jacketed chamber filled with buffer during the occlusion period at a constant temperature of 37° C. Perfusion was re-initiated and continued for 120-min. The balloon was deflated at the beginning of reperfusion so subendocardial perfusion would not be impaired by any elevation in luminal diastolic pressure. The balloon was reinflated to zero diastolic pressure (unstressed ventricular volume) so final developed pressure could be measured. The coronary effluent was sampled immediately prior to ischemia, immediately at reperfusion, and serially thereafter every 20-min. The heart was perfused with buffer containing either vehicle (DMSO) or VX-765 for 10-min prior to ischemia and again during reperfusion. Two groups were tested: 1) DMSO vehicle control perfused at 0.5 mL/L of buffer and 2) VX-765, 30 μM final concentration. After 120 minutes reperfusion, developed pressure was measured as the difference between end-systolic and end-diastolic left ventricular pressure with a transducer attached to the intraventricular balloon. Infarct size was measured as above. Collected effluent was analyzed for lactate dehydrogenase (LDH) as previously described. An independent aliquot was concentrated 20-fold using a 3,000 MW cut-off ultrafilter (Millipore) and assayed for IL-113 by ELISA (ThermoFisher Scientific).

[3] = system: mitochondrial complexes (Complex-I, Complex-III); test: 60-min ischemia/30-min reperfusion: high resolution respirometry of heart tissue biopsies; type: in vivo, rat
Procedure: (§1) Applicants' standard in situ open chest LAD occlusion protocol was modified to examine effects of a 30-min reperfusion period on heart tissue enzymes and metabolic function. Two groups were tested with infusions occurring 5-min prior to reperfusion: 1) vehicle control DMSO (the VX-765 solvent) was administered as (1.0 mL of 100% DMSO)×(kg body weight) with the final infusion volume adjusted to 0.9 mL with normal saline; and 2) VX-765, 32 mg/kg. Immediately prior to experiment terminus, blood was collected and serum assayed by ELISA for levels of circulating IL-113. At experiment terminus, the heart was removed from the chest and mounted on a Langendorff apparatus where it was perfused with normal saline. The coronary branch was re-occluded and 15 μm fluorescent microspheres were infused to identify the ischemic zone followed by acquisition of biopsies from both ischemic and non-ischemic zones. Viable samples were immediately prepared for high resolution respirometry using the Oroboros oxygraph O2K as previously described. In parallel, a portion of the biopsied tissue was immediately ejected into liquid nitrogen and stored at −80° C. Subsequently, tissues were homogenized and solubilized for analyses of total protein. Normalized amounts of protein were resolved by SDS-PAGE (4-20% Tris-Glycine gradient gels) and analyzed by immunoblotting using antibodies against Caspase-1, glyceraldehyde-3-phosphate dehydrogenase (GAPDH), Aldolase-A, and Hexokinase II. In a separate set of blots, samples were assayed for protein oxidation (carbonylation) using the oxidized protein western blot kit (Abcam, oxyblotting). For all blotting experiments, protein transfer membranes were first stained with Coomassie Brilliant Blue (CBB) and analyzed on the LiCor Odyssey for total protein levels. These CBB data were used to normalize all immuno- and oxyblotting data.
Tissue mitochondrial function is reported as the amount of oxygen consumed (i.e., JO2). In this protocol, heart tissues are harvested 30-min after reperfusion to ensure tissue retention of mitochondrial function and permeabilized with detergents to allow direct assessment of each mitochondrial complex via addition of specific substrates (i.e., electron donors) and poisons. Using this early 30-min reperfusion time point allows differentiation of dysfunctional mitochondrial complex activities from the absolute loss of function occurring at later time points after cell death had ensued. As a further level of experimental control, mitochondrial complex activities were assayed in non-ischemic and ischemic zone tissues isolated from animals treated with vehicle control (DMSO) or the Caspase-1 inhibitor VX-765.

[4] = system: I/R injury of the heart (LAD occlusion); conditions: VX-765 16 mg/kg body weight 30-min prior to onset of ischemia; cited from earlier work
protein carbonylation = test: 60-min ischemia/30-min reperfusion: protein oxidation (carbonylation) oxyblotting of heart tissue; type: in vivo, rat; conditions: ischemic and non-ischemic tissues, FIG. 5D
Procedure: as §1, with “Viable samples were immediately prepared for high resolution respirometry using the Oroboros oxygraph O2K as previously described. In parallel, a portion of the biopsied tissue was immediately ejected into liquid nitrogen and stored at −80° C. Subsequently, tissues were homogenized and solubilized for analyses of total protein.” left out, “In a separate set of blots, samples were assayed for protein oxidation (carbonylation) using the oxidized protein western blot kit (Abcam, oxyblotting).” left out, “These CBB data were used to normalize all immuno- and oxyblotting data.” left out

[5] = system: Caspase-1, GAPDH, Aldolase-A, Hexokinase II; test: 60-min ischemia/30-min reperfusion: immunoblotting of heart tissue biopsies; type: in vivo, rat
Procedure: as §1

[6] = system: buffer perfused mouse hearts (global ischemia); test: Isolated buffer-perfused mouse heart, 35 or 50 min global ischemia/2 h reperfusion, infarct size; design: species or system C57BL/6 mice; conditions: for infarct size reduction (in words): mouse heart, 30 uM VX-765 10 min prior to ischemia and throughout reperfusion, 9 uM emricasan first 20 min of reperfusion, FIG. 9
Procedure: Hearts were removed from pentobarbital-anesthetized C57BL/6 mice and quickly (less than 3 min) mounted on a Langendorff perfusion apparatus where they were retroperfused with Krebs buffer at 100 mmHg pressure and at 37 Deg C. After 20 min perfusion to equilibrate the perfusion was stopped to create global ischemia. After and index ischemia of either 35 or 50 min the hearts were reperfused for 2 h and infarct size was measured by triphenyltetrazolium staining. Treatments included 30 uM VX-765 for 10 min prior to ischemia and throughout reperfusion, 9 uM emricasan for the first 20 min of reperfusion only, Ischemic preconditioning (IPC) with three cycles of 5 min ischemic Plus 5 min reperfusion prior to the index ischemia, or IPC+emricasan.

IL-1β = test: In situ open-chest LAD occlusion, 60-min ischemia/30-min reperfusion: serum IL-1β ELISA; type: in vivo, rat; conditions: VX-765 32 mg/kg 5-min prior to reperfusion, FIG. 4A
Procedure: as §1, with “Viable samples were immediately prepared for high resolution respirometry using the Oroboros oxygraph O2K as previously described. In parallel, a portion of the biopsied tissue was immediately ejected into liquid nitrogen and stored at −80° C. Subsequently, tissues were homogenized and solubilized for analyses of total protein.” left out, “In a separate set of blots, samples were assayed for protein oxidation (carbonylation) using the oxidized protein western blot kit (Abcam, oxyblotting).” left out, “These CBB data were used to normalize all immuno- and oxyblotting data.” left out

coronary I/R = conditions: rat models of coronary I/R; cited from earlier work

## CSCCNc1nc(SCCC(F)(F)F)nc2c1ncn2[C@@H]1O[C@H](COP(=O)(O)OP(=O)(O)C(Cl)(Cl)P(=O)(O)O)[C@@H](O)[C@H]1O [cangrelor]
[1]
  infarct size / cardioprotection (in words): reduced infarct size
  infarction, % of the risk zone: 43.8±2.4%

## CCCSc1nc(N[C@@H]2C[C@H]2c2ccc(F)c(F)c2)c2nnn([C@@H]3C[C@H](OCCO)[C@@H](O)[C@H]3O)c2n1 [ticagrelor]
[1]; IPOC three cycles of 30 s reperfusion/30 s occlusion at end of 60 min ischemia, FIG. 10
  protection when combined with ischemic postconditioning (IPOC): no more protective than either alone
[1]
  infarct size / cardioprotection (in words): reduced infarct size; also recorded: no more cardioprotective than cangrelor
  infarction, % of the risk zone: 42.8±3.3%

## CCO[C@@H]1OC(=O)C[C@@H]1NC(=O)[C@@H]1CCCN1C(=O)[C@@H](NC(=O)c1ccc(N)c(Cl)c1)C(C)(C)C [VX-765, (S)-1-((S)-2-{[1-(4-amino-3-chloro-phenyl)-methanoyl]-amino}-3,3-dimethyl-butanoyl)-pyrrolidine-2-carboxylic acid ((2R,3S)-2-ethoxy-5-oxo-tetrahydro-furan-3-yl)-amide]
[2]; VX-765 30 μM, FIG. 3C
  LDH release into coronary effluent: all but abolished
[2]; blood free isolated buffer-perfused heart, FIG. 3
  protection against global I/R injury (in words): protects against global I/R injury
[2]; end of 120-min reperfusion, VX-765 30 μM
  left ventricular developed pressure: 20.5±4.2 mmHg
[2]; isolated rat heart, VX-765 30 μM in perfusate prior to ischemia and during reperfusion
  average infarction: 45.8±1.5%
[3]; compared to vehicle, FIG. 5C
  Complex-III activity: no significant differences
[3]; different substrates, FIG. 7
  JO2 in different states of mitochondrial respiration: none of the heart tissues from any group displayed JO2 differences
[3]; non-ischemic and ischemic tissues, compared to vehicle, FIG. 5B
  Complex-I activity: significantly decreased Complex-I activity
[3]; tissues reperfused for 30-min, FIG. 5A
  respiratory ratio (mitochondrial fitness): not different among all groups
[4]
  cardioprotection, previously reported: extremely cardioprotective
Protein carbonylation
  protein carbonylation: no differences in protein carbonylation
[5]; ischemic tissue, VX-765 32 mg/kg, FIG. 4B
  levels of active Caspase-1 in tissue: did not prevent Caspase-1 activation
[5]; ischemic zone, FIG. 4C
  GAPDH degradation: prevented degradation of GAPDH in the ischemic zone
[5]; ischemic zone, FIG. 4D
  aldolase-A degradation: partially prevented degradation of aldolase-A
[5]; ischemic zone, FIG. 4E
  hexokinase II degradation (negative control): no effect in hexokinase II
[6]
  infarct size reduction (in words): similarly reduced infarct size; also recorded: equipotent for infarct size reduction
IL-1β
  IL-1β level in blood, vehicle (DMSO) compared to VX-765: significantly higher levels of IL-113 in blood when compared to animals treated with VX-765
[1]; VX-765 iv prior to ischemia, data not shown
  dose dependence of infarct size reduction (pilot studies): independent of the dose above 16 mg/kg
[1]
  infarct size / cardioprotection (in words): reduced infarct size
  infarction, % of the risk zone: 38.6±3.9%

## C[C@H](NC(=O)C(=O)Nc1ccccc1C(C)(C)C)C(=O)N[C@@H](CC(=O)O)C(=O)COc1c(F)c(F)cc(F)c1F [emricasan]
[6]; index ischemia 50 min, IPC three cycles 5 min ischemia/5 min reperfusion, 9 uM emricasan
  protection in combination with ischemic preconditioning (IPC): additive protection
[6]
  infarct size reduction (in words): similarly reduced infarct size; also recorded: equipotent for infarct size reduction
[6]; listed as Emricasan
  infarct size reduction (in words): as protective as VX-765 pretreatment

## zVAD
Coronary I/R
  infarct size: reduced infarct size
